According to patent US11708562B2, “Differentiation of human embryonic stem cells” (Janssen Biotech, Inc., priority 2006, dated 2023):

Test system: H9P83 cells on MATRIGEL and H9P44 cells on MEFs
Assay: Microarray analysis of gene expression after definitive endoderm formation (Table IV)
Assay type: cell-based, human
Details: after 5 days of treatment
Method: Controls for each group included cells plated on […]-coated dishes and cultured in MEF-conditioned medium or cells plated on MEFs and cultured in ES medium.
Sample preparation, hybridization, and image analysis were performed according to the Affymetrix Human Genome U133 Plus 2.0 Array. Following normalization and a log transformation, data analysis was performed using OmniViz® software (MA) and […] (VizXLabs, WA). The variability within each treatment and among the different treatments was compared using the Pearson correlation coefficient. […] Significant differences in gene expression between the samples were evaluated using analysis of variance and an F-test with adjusted P-value (Benjamini and Hochberg correction) of ≤0.05. Only genes with a present call were included in the analysis.

[1] = H9P44 on MEFs-DE stage, undifferentiated H9P44 on MEFs 2.17
[2] = H9P44 on MEFs-DE stage, undifferentiated H9P44 on MEFs 2.18
[3] = H9P44 on MEFs-DE stage, undifferentiated H9P44 on MEFs 3.80
[4] = H9P83 on Matrigel-DE stage, undifferentiated H9P83 on Matrigel 1.38

Activin A: a member of the TGFβ superfamily; growth factor (R&D Systems) used to differentiate human embryonic stem cells
expression of HCN1 (BM682352, cDNA FLJ37204 fis, clone BRALZ2006976) (H9P44 on MEFs-DE stage): −3.88 | expression of INDO (M34455, indoleamine 2,3-dioxygenase (IDO)) (H9P44 on MEFs-DE stage): 1.69 | expression of JAKMIP2 (BU729850, hypothetical protein LOC153469) (H9P44 on MEFs-DE stage): −1.56 | expression of LOC157627 (AL832535, cDNA DKFZp547J1816) (H9P44 on MEFs-DE stage): −1.50 | expression of PCSK1 (NM_000439, proprotein convertase subtilisinkexin type 1) (H9P44 on MEFs-DE stage): −3.19 | expression of SMOC2 (AB014737, mRNA for SMAP-2b) (H9P44 on MEFs-DE stage): −2.27 | SCNN1G (AI985987) gene expression (H9P44 on MEFs-DE stage, undifferentiated H9P44 on MEFs 0.12): −2.70 | TMEM16A (NM_018043) gene expression (H9P44 on MEFs-DE stage, undifferentiated H9P44 on MEFs 0.25): −3.93 | LOC646326 (BE972639) gene expression (H9P44 on MEFs-DE stage, undifferentiated H9P44 on MEFs 0.33): −2.24 | COL14A1 (AI693516) gene expression (H9P44 on MEFs-DE stage, undifferentiated H9P44 on MEFs 0.96): −1.81 | AK5 (BG169832) gene expression (H9P44 on MEFs-DE stage, undifferentiated H9P44 on MEFs 1.03): −1.94 | C9orf39 (AA280904) gene expression (H9P44 on MEFs-DE stage, undifferentiated H9P44 on MEFs 1.13): −0.78 | LOC200230 (AI056877) gene expression (H9P44 on MEFs-DE stage, undifferentiated H9P44 on MEFs 1.15): −1.35 | CTNND2 (U96136) gene expression (H9P44 on MEFs-DE stage, undifferentiated H9P44 on MEFs 1.18): −1.17 | SDK2 (N23651) gene expression (H9P44 on MEFs-DE stage, undifferentiated H9P44 on MEFs 1.27): −2.07 | SAMHD1 (AF147427) gene expression (H9P44 on MEFs-DE stage, undifferentiated H9P44 on MEFs 1.35): −2.30 | PAH (NM_000277) gene expression (H9P44 on MEFs-DE stage, undifferentiated H9P44 on MEFs 1.46): −0.42 | AL120674 (ESTs) gene expression (H9P44 on MEFs-DE stage, undifferentiated H9P44 on MEFs 1.55): −2.20 | AI742043 (ESTs) gene expression (H9P44 on MEFs-DE stage, undifferentiated H9P44 on MEFs 1.77): −1.45 | DAZL (NM_001351) gene expression (H9P44 on MEFs-DE stage, undifferentiated H9P44 on MEFs 1.93): −0.73 | PSMB9 (NM_002800) gene expression (H9P44 on MEFs-DE stage, undifferentiated H9P44 on MEFs 2.05): −1.43 | BF698797 (ESTs) gene expression (H9P44 on MEFs-DE stage, undifferentiated H9P44 on MEFs 2.07): −0.40 | AF107846 (neuroendocrine-specific Golgi protein p55 (XLalphas) gene) expression (H9P44 on MEFs-DE stage, undifferentiated H9P44 on MEFs 2.12): −2.56 | CHST8 (NM_022467) gene expression [1]: 0.48 | NPTX1 (NM_002522) gene expression [1]: −1.19 | FGF19 (AF110400) gene expression [2]: −0.91 | PCDH8 (NM_002590) gene expression [2]: 0.12 | LOC157627 (AF052108) gene expression (H9P44 on MEFs-DE stage, undifferentiated H9P44 on MEFs 2.26): −1.33 | C10orf96 (BC044830) gene expression (H9P44 on MEFs-DE stage, undifferentiated H9P44 on MEFs 2.28): −1.39 | CR2 (NM_001877) gene expression (H9P44 on MEFs-DE stage, undifferentiated H9P44 on MEFs 2.35): −1.44 | SAMHD1 (NM_015474) gene expression (H9P44 on MEFs-DE stage, undifferentiated H9P44 on MEFs 2.89): 0.29 | PSMB8 (U17496) gene expression (H9P44 on MEFs-DE stage, undifferentiated H9P44 on MEFs 3.30): 0.09 | HHIP (AK098525) gene expression (H9P44 on MEFs-DE stage, undifferentiated H9P44 on MEFs 3.32): −0.11 | KCNG3 (NM_133329) gene expression (H9P44 on MEFs-DE stage, undifferentiated H9P44 on MEFs 3.67): 0.26 | STXBP6 (N21096) gene expression (H9P44 on MEFs-DE stage, undifferentiated H9P44 on MEFs 3.69): 1.14 | NMI (NM_004688) gene expression [3]: 1.13 | RMST (BE468066) gene expression [3]: 1.63 | TOX (AI961231) gene expression (H9P44 on MEFs-DE stage, undifferentiated H9P44 on MEFs 4.00): 1.13 | C20orf118 (BF437747) gene expression (H9P44 on MEFs-DE stage, undifferentiated H9P44 on MEFs 4.57): 1.75 | C20orf118 (AV715309) gene expression (H9P44 on MEFs-DE stage, undifferentiated H9P44 on MEFs 4.76): 1.48 | FEZ1 (NM_005103) gene expression (H9P44 on MEFs-DE stage, undifferentiated H9P44 on MEFs 4.98): 2.20 | SCG5 (NM_003020) gene expression (H9P44 on MEFs-DE stage, undifferentiated H9P44 on MEFs 5.01): 3.11 | LECT1 (NM_007015) gene expression (H9P44 on MEFs-DE stage, undifferentiated H9P44 on MEFs 5.36): 1.83 | IFIH1 (NM_022168) gene expression (H9P44 on MEFs-DE stage, undifferentiated H9P44 on MEFs −0.10): −2.15 | ATP5S (BE968806) gene expression (H9P44 on MEFs-DE stage, undifferentiated H9P44 on MEFs −0.34): −4.73 | PAK7 (AB040812) gene expression (H9P44 on MEFs-DE stage, undifferentiated H9P44 on MEFs −0.49): −4.18 | expression of HCN1 (BM682352, cDNA FLJ37204 fis, clone BRALZ2006976) (H9P83 on Matrigel-DE stage): −4.38 | expression of INDO (M34455, indoleamine 2,3-dioxygenase (IDO)) (H9P83 on Matrigel-DE stage): 1.58 | expression of JAKMIP2 (BU729850, hypothetical protein LOC153469) (H9P83 on Matrigel-DE stage): 0.43 | expression of LOC157627 (AL832535, cDNA DKFZp547J1816) (H9P83 on Matrigel-DE stage): −0.04 | expression of PCSK1 (NM_000439, proprotein convertase subtilisinkexin type 1) (H9P83 on Matrigel-DE stage): −2.68 | expression of SMOC2 (AB014737, mRNA for SMAP-2b) (H9P83 on Matrigel-DE stage): −2.04 | LOC646326 (BE972639) gene expression (H9P83 on Matrigel-DE stage, undifferentiated H9P83 on Matrigel 0.00): −2.71 | LOC200230 (AI056877) gene expression (H9P83 on Matrigel-DE stage, undifferentiated H9P83 on Matrigel 0.11): −2.37 | C9orf39 (AA280904) gene expression (H9P83 on Matrigel-DE stage, undifferentiated H9P83 on Matrigel 0.23): −1.58 | COL14A1 (AI693516) gene expression (H9P83 on Matrigel-DE stage, undifferentiated H9P83 on Matrigel 0.39): −1.63 | AF107846 (neuroendocrine-specific Golgi protein p55 (XLalphas) gene) expression (H9P83 on Matrigel-DE stage, undifferentiated H9P83 on Matrigel 0.44): −0.25 | AK5 (BG169832) gene expression (H9P83 on Matrigel-DE stage, undifferentiated H9P83 on Matrigel 0.62): −2.79 | PAH (NM_000277) gene expression (H9P83 on Matrigel-DE stage, undifferentiated H9P83 on Matrigel 0.65): −1.08 | CTNND2 (U96136) gene expression (H9P83 on Matrigel-DE stage, undifferentiated H9P83 on Matrigel 0.78): −1.33 | BF698797 (ESTs) gene expression (H9P83 on Matrigel-DE stage, undifferentiated H9P83 on Matrigel 0.93): −0.74 | AI742043 (ESTs) gene expression (H9P83 on Matrigel-DE stage, undifferentiated H9P83 on Matrigel 0.94): −0.76 | AL120674 (ESTs) gene expression (H9P83 on Matrigel-DE stage, undifferentiated H9P83 on Matrigel 1.00): −1.35 | SAMHD1 (AF147427) gene expression (H9P83 on Matrigel-DE stage, undifferentiated H9P83 on Matrigel 1.33): −0.99 | C10orf96 (BC044830) gene expression [4]: −0.32 | PSMB9 (NM_002800) gene expression [4]: 0.27 | LOC157627 (AF052108) gene expression (H9P83 on Matrigel-DE stage, undifferentiated H9P83 on Matrigel 1.49): 0.22 | CR2 (NM_001877) gene expression (H9P83 on Matrigel-DE stage, undifferentiated H9P83 on Matrigel 1.50): −0.43 | DAZL (NM_001351) gene expression (H9P83 on Matrigel-DE stage, undifferentiated H9P83 on Matrigel 1.69): −0.81 | HHIP (AK098525) gene expression (H9P83 on Matrigel-DE stage, undifferentiated H9P83 on Matrigel 1.76): −0.57 | CHST8 (NM_022467) gene expression (H9P83 on Matrigel-DE stage, undifferentiated H9P83 on Matrigel 2.11): −0.51 | FGF19 (AF110400) gene expression (H9P83 on Matrigel-DE stage, undifferentiated H9P83 on Matrigel 2.12): −0.08 | KCNG3 (NM_133329) gene expression (H9P83 on Matrigel-DE stage, undifferentiated H9P83 on Matrigel 2.18): 0.74 | NPTX1 (NM_002522) gene expression (H9P83 on Matrigel-DE stage, undifferentiated H9P83 on Matrigel 2.35): −0.48 | STXBP6 (N21096) gene expression (H9P83 on Matrigel-DE stage, undifferentiated H9P83 on Matrigel 2.42): 0.99 | SAMHD1 (NM_015474) gene expression (H9P83 on Matrigel-DE stage, undifferentiated H9P83 on Matrigel 2.63): 0.57 | FEZ1 (NM_005103) gene expression (H9P83 on Matrigel-DE stage, undifferentiated H9P83 on Matrigel 2.80): 2.08 | RMST (BE468066) gene expression (H9P83 on Matrigel-DE stage, undifferentiated H9P83 on Matrigel 3.26): 1.49 | TOX (AI961231) gene expression (H9P83 on Matrigel-DE stage, undifferentiated H9P83 on Matrigel 3.28): 1.23 | PSMB8 (U17496) gene expression (H9P83 on Matrigel-DE stage, undifferentiated H9P83 on Matrigel 3.43): 0.46 | NMI (NM_004688) gene expression (H9P83 on Matrigel-DE stage, undifferentiated H9P83 on Matrigel 3.54): 0.96
